# Measurements published in patent publication US10766869B2, “Triazoles for the treatment of demyelinating dieases” (Vertex Pharmaceuticals Incorporated, priority 2015, dated 2020).
# Where two headings read alike, the source gives them in different places.
# Test system: primary rat mixed cortical cells
# Assay: In vitro myelination assay (MBP positive myelin strands, fold myelin pixels above background)
# Type: cell-based
# Settings: Rattus norvegicus; for fold induction at 1 µM: 1.0 μM compound; for fold induction at 10 µM: 10.0 μM compound
# Summary of the method: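 Myelination read as total MBP-immunopositive strand pixels per well, imaged at 10× after fixation on day 14 and expressed relative to untreated wells, at 1.0 and 10.0 μM. Cells: dissociated postnatal day 1 rat cortex, cultured two weeks with compound, re-dosed at days 6 and 10.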
# [1] = read-out: Fold myelin pixels above background relative to baseline of no added compound
# [2] = relative to baseline of no added compound, read-out: Fold myelin pixels above background
# [3] = relative to baseline of no added compound, read-out: Fold myelin pixels above background, 1.0 μM
# [4] = relative to baseline of no added compound, read-out: Fold myelin pixels above background, 10.0 μM
smiles,measurement,setting,value
"Fc1cc(-n2cnc(Nc3cc(Cl)cc(N4CC(N5CCOCC5)C4)c3)n2)ccn1 [Compound 819, N-[3-chloro-5-(3-morpholinoazetidin-1-yl)phenyl]-1-(2-fluoro-4-pyridyl)-1,2,4-triazol-3-amine]",fold induction at 1 µM,[1],10 to 100
same,fold induction at 10 µM,[1],1 to 10
"Fc1ccc(-n2cnc(Nc3cc(C4CC4)nc(N4CC[C@H](F)C4)c3)n2)cc1F [Compound 492, 2-cyclopropyl-N-[1-(3,4-difluorophenyl)-1,2,4-triazol-3-yl]-6-[(3S)-3-fluoropyrrolidin-1-yl]pyridin-4-amine]",fold induction at 1 µM,[2],1000 to 10000
same,fold induction at 10 µM,[2],1000 to 10000
"Fc1cc(F)cc(-n2cnc(Nc3cc(C4=CCOCC4)nc(C4CC4)c3)n2)c1 [Compound 35, 2-cyclopropyl-N-[1-(3,5-difluorophenyl)-1,2,4-triazol-3-yl]-6-(3,6-dihydro-2H-pyran-4-yl)pyridin-4-amine]",fold induction at 1 µM,[3],100 to 1000
same,fold induction at 10 µM,[4],10 to 100
"CCc1cc(Nc2ncn(-c3cccc(SC)c3)n2)cc(N2CCN(C3COC3)CC2)c1 [Compound 463, N-[3-ethyl-5-[4-(oxetan-3-yl)piperazin-1-yl]phenyl]-1-(3-methylsulfanylphenyl)-1,2,4-triazol-3-amine]",fold induction at 1 µM,[2],1 to 10
same,fold induction at 10 µM,[2],≤ 1
"CCC1CCCN1c1cc(F)cc(-n2cnc(Nc3cc(C)cc(N4CCN(C5COC5)CC4)c3)n2)c1 (centres unmarked) [Compound 103, 1-[3-(2-ethylpyrrolidin-1-yl)-5-fluoro-phenyl]-N-[3-methyl-5-[4-(oxetan-3-yl)piperazin-1-yl]phenyl]-1,2,4-triazol-3-amine]",fold induction at 1 µM,[3],100 to 1000
same,fold induction at 10 µM,[4],≤ 1
"COC1CCCN(c2cc(C)cc(Nc3ncn(-c4cc(F)cc(F)c4)n3)c2)C1 (centres unmarked) [Compound 293, 1-(3,5-difluorophenyl)-N-[3-(3-methoxy-1-piperidyl)-5-methyl-phenyl]-1,2,4-triazol-3-amine]",fold induction at 1 µM,[3],10 to 100
same,fold induction at 10 µM,[4],10 to 100
"Cc1cc(Nc2ncn(-c3cc(F)cc(F)c3)n2)cc(N2CCN(C)C(CO)C2)c1 (centres unmarked) [Compound 53, [4-[3-[[1-(3,5-difluorophenyl)-1,2,4-triazol-3-yl]amino]-5-methyl-phenyl]-1-methyl-piperazin-2-yl]methanol]",fold induction at 1 µM,[3],10 to 100
same,fold induction at 10 µM,[4],≤ 1
"Cc1cc(Nc2ncn(-c3cc(F)cc(F)c3)n2)cc([C@]2(C)CN(C3COC3)CCO2)c1 (single isomer, unassigned) [Compound 750]",fold induction at 1 µM,[2],1 to 10
same,fold induction at 10 µM,[2],10 to 100
"Cc1cc(Nc2ncn(-c3cc(F)cc(F)c3)n2)cc(N2C[C@H]3C[C@@H]2CN3C2COC2)c1 [Compound 185, 1-(3,5-difluorophenyl)-N-[3-methyl-5-[(1R,4R)-2-(oxetan-3-yl)-2,5-diazabicyclo[2.2.1]heptan-5-yl]phenyl]-1,2,4-triazol-3-amine]",fold induction at 1 µM,[3],100 to 1000
same,fold induction at 10 µM,[4],1 to 10
"Cc1nccc(-n2cnc(Nc3cc(C4CC4)cc(N4CCN(C5COC5)CC4)c3)n2)n1 [Compound 454, N-[3-cyclopropyl-5-[4-(oxetan-3-yl)piperazin-1-yl]phenyl]-1-(2-methylpyrimidin-4-yl)-1,2,4-triazol-3-amine]",fold induction at 1 µM,[2],≤ 1
same,fold induction at 10 µM,[2],1 to 10
"[2H]C1([2H])N(C(=O)C2CC2)C([2H])([2H])C([2H])([2H])N(c2cc(Nc3ncn(-c4cc(F)cc(F)c4)n3)cc(C(F)F)c2)C1([2H])[2H] [Compound 1041, cyclopropyl-[2,2,3,3,5,5,6,6-octadeuterio-4-[3-(difluoromethyl)-5-[[1-(3,5-difluorophenyl)-1,2,4-triazol-3-yl]amino]phenyl]piperazin-1-yl]methanone]",fold induction at 1 µM,[1],1 to 10
same,fold induction at 10 µM,[1],1 to 10
"Cc1cc(Nc2ncn(-c3cc(F)cc(F)c3)n2)nc(N2CCN(C(=O)OC(C)(C)C)CC2)c1 [Compound 533, tert-butyl 4-[6-[[1-(3,5-difluorophenyl)-1,2,4-triazol-3-yl]amino]-4-methyl-2-pyridyl]piperazine-1-carboxylate]",fold induction at 1 µM,[2],10 to 100
same,fold induction at 10 µM,[2],1 to 10
"Cc1cc(Nc2ncn(-c3cc(F)cc(F)c3)n2)cc(N2CC(N3CCCC3=O)C2)c1 [Compound 542, 1-[1-[3-[[1-(3,5-difluorophenyl)-1,2,4-triazol-3-yl]amino]-5-methyl-phenyl]azetidin-3-yl]pyrrolidin-2-one]",fold induction at 1 µM,[2],10 to 100
same,fold induction at 10 µM,[2],10 to 100
"Fc1cc(F)cc(-n2cnc(Nc3cc(C4CCOCC4)nc(C4CC4)c3)n2)c1 [Compound 407, 2-cyclopropyl-N-[1-(3,5-difluorophenyl)-1,2,4-triazol-3-yl]-6-tetrahydropyran-4-yl-pyridin-4-amine]",fold induction at 1 µM,[2],1000 to 10000
same,fold induction at 10 µM,[2],≤ 1
"CCNC(=O)N1CCN(c2cc(C(F)(F)F)cc(Nc3ncn(-c4cc(F)cc(F)c4)n3)n2)CC1 [Compound 554, 4-[6-[[1-(3,5-difluorophenyl)-1,2,4-triazol-3-yl]amino]-4-(trifluoromethyl)-2-pyridyl]-N-ethyl-piperazine-1-carboxamide]",fold induction at 1 µM,[2],10 to 100
same,fold induction at 10 µM,[2],10 to 100
"Cc1cc(Nc2ncn(-c3cccc(C(F)F)c3)n2)cc(N2CCC(N3CCOCC3)CC2)c1 [Compound 725, 1-[3-(difluoromethyl)phenyl]-N-[3-methyl-5-(4-morpholino-1-piperidyl)phenyl]-1,2,4-triazol-3-amine]",fold induction at 1 µM,[2],10 to 100
same,fold induction at 10 µM,[2],10 to 100
"Cc1cc(Nc2ncn(-c3cc(F)cc(F)c3)n2)cc(O[C@H]2CCN(C3COC3)C2)c1 [Compound 304, 1-(3,5-difluorophenyl)-N-[3-methyl-5-[(3S)-1-(oxetan-3-yl)pyrrolidin-3-yl]oxy-phenyl]-1,2,4-triazol-3-amine]",fold induction at 1 µM,[3],100 to 1000
same,fold induction at 10 µM,[4],≤ 1
"Cc1cc(Nc2ncn(-c3cccc(C(F)(F)F)c3)n2)nc(N2CCOCC2)c1 [Compound 837, 4-methyl-6-morpholino-N-[1-[3-(trifluoromethyl)phenyl]-1,2,4-triazol-3-yl]pyridin-2-amine]",fold induction at 1 µM,[1],1 to 10
same,fold induction at 10 µM,[1],10 to 100
"Cc1cc(Nc2ncn(-c3cccc(Cl)n3)n2)cc(N2CCCC2)c1 [Compound 488, 1-(6-chloro-2-pyridyl)-N-(3-methyl-5-pyrrolidin-1-yl-phenyl)-1,2,4-triazol-3-amine]",fold induction at 1 µM,[2],≤ 1
same,fold induction at 10 µM,[2],≤ 1
"[2H]C1([2H])N(C(=O)C2CC2)C([2H])([2H])C([2H])([2H])N(c2cc(Nc3ncn(-c4cc(F)cc(F)c4)n3)cc(C(F)(F)F)c2)C1([2H])[2H] [Compound 883, cyclopropyl-[2,2,3,3,5,5,6,6-octadeuterio-4-[3-[[1-(3,5-difluorophenyl)-1,2,4-triazol-3-yl]amino]-5-(trifluoromethyl)phenyl]piperazin-1-yl]methanone]",fold induction at 1 µM,[1],10 to 100
same,fold induction at 10 µM,[1],1 to 10
"Cc1cc(OCC(=O)N2CCCC2)cc(Nc2ncn(-c3cc(F)cc(F)c3)n2)c1C [Compound 965, 2-[3-[[1-(3,5-difluorophenyl)-1,2,4-triazol-3-yl]amino]-4,5-dimethyl-phenoxy]-1-pyrrolidin-1-yl-ethanone]",fold induction at 1 µM,[1],10 to 100
same,fold induction at 10 µM,[1],10 to 100
"[2H]c1nc(Nc2cc(C)cc(N3CCN(C4COC4)CC3)c2)nn1-c1cc(F)cc(F)c1 [Compound 1080, 5-deuterio-1-(3,5-difluorophenyl)-N-[3-methyl-5-[4-(oxetan-3-yl)piperazin-1-yl]phenyl]-1,2,4-triazol-3-amine]",fold induction at 1 µM,[1],10 to 100
same,fold induction at 10 µM,[1],10 to 100
"CN1CCN(c2cc(Nc3ncn(-c4ccncn4)n3)cc(C(F)(F)F)c2)CC1 [Compound 96, N-[3-(4-methylpiperazin-1-yl)-5-(trifluoromethyl)phenyl]-1-pyrimidin-4-yl-1,2,4-triazol-3-amine]",fold induction at 1 µM,[3],100 to 1000
same,fold induction at 10 µM,[4],100 to 1000
"Fc1cc(F)cc(-n2cnc(Nc3cc(N4CCN(C5COC5)CC4)cc(N4CC(N5CCOCC5)C4)c3)n2)c1 [Compound 701, 1-(3,5-difluorophenyl)-N-[3-(3-morpholinoazetidin-1-yl)-5-[4-(oxetan-3-yl)piperazin-1-yl]phenyl]-1,2,4-triazol-3-amine]",fold induction at 1 µM,[2],10 to 100
same,fold induction at 10 µM,[2],≤ 1
"Cc1cc(Nc2ncn(-c3cccc(F)c3)n2)cc(N2CC3(C2)CN(C(C)C)C3)c1 [Compound 1071, 1-(3-fluorophenyl)-N-[3-(2-isopropyl-2,6-diazaspiro[3.3]heptan-6-yl)-5-methyl-phenyl]-1,2,4-triazol-3-amine]",fold induction at 1 µM,[1],10 to 100
same,fold induction at 10 µM,[1],≤ 1
"CCc1cc(Nc2ncn(-c3cncc(C)n3)n2)cc(N2CCN(C3COC3)CC2)c1 [Compound 401, N-[3-ethyl-5-[4-(oxetan-3-yl)piperazin-1-yl]phenyl]-1-(6-methylpyrazin-2-yl)-1,2,4-triazol-3-amine]",fold induction at 1 µM,[2],100 to 1000
same,fold induction at 10 µM,[2],100 to 1000
"Cc1cc(Nc2ncn(-c3ccccc3)n2)cc(N2CCC3(CC2)COC3)c1 [Compound 11, N-[3-methyl-5-(2-oxa-7-azaspiro[3.5]nonan-7-yl)phenyl]-1-phenyl-1,2,4-triazol-3-amine]",fold induction at 1 µM,[3],1000 to 10000
same,fold induction at 10 µM,[4],1000 to 10000
"CCc1cc(Nc2ncn(-c3ccc(F)cc3)n2)cc(N2CCN(C3(C)COC3)CC2)c1 [Compound 802, N-[3-ethyl-5-[4-(3-methyloxetan-3-yl)piperazin-1-yl]phenyl]-1-(4-fluorophenyl)-1,2,4-triazol-3-amine]",fold induction at 1 µM,[1],10 to 100
same,fold induction at 10 µM,[1],≤ 1
